Data from US20260224716A1, “PTH ANALOGS FOR THE TREATMENT OF HYPOPARATHYROIDISM” (priority 2020, published 2026).

What was measured:
[1] = Cleavage half-life / conversion of PTH prodrugs in PBS pH 7.4, 37° C. by LC-MS; format: physicochemical; conditions: for half-life: PBS buffer, dipeptide cleavage from PTH prodrug, PBS pH 7.4, 37° C., read-out: Half life (converted)
Method: The resulting solution was incubated at 37° C. Aliquots were taken at designed time points and analyzed by LC-MS. […] Flow rate of 1 mL/min and a gradient of 10%-80% acetonitrile in water, with 0.1% trifluoroacetic acid over 10 min. […] The concentration of prodrug and drug were determined by their relative peak areas. The […] dissociation rate constant of the prodrug was determined by plotting the logarithm in the concentration of the prodrug at various time points.

[2] = target: T1, PTH1 receptor (Homo sapiens, UniProt Q03431); experiment: Luciferase-based reporter gene assay for cAMP detection (HEK293 cells); format: cell-based
T1 construct: expressed in transfected cells; host or cells: HEK293
T1 sequence (Q03431 27-593): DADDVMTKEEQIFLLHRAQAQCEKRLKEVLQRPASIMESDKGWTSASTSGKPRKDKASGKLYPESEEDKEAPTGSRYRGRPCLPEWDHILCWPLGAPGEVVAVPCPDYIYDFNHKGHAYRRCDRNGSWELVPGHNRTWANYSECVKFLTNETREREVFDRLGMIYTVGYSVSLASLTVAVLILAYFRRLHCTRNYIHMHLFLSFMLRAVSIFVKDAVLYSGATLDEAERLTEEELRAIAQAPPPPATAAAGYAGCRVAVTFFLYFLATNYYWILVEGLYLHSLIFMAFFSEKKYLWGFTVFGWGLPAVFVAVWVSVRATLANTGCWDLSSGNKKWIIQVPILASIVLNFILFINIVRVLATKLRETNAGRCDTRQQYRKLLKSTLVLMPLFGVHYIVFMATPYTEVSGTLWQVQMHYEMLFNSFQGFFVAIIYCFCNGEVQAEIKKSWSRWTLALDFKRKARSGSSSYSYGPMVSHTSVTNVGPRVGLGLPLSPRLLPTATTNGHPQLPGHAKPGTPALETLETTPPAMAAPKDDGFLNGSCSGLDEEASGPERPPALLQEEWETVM
Method: At the end of the incubation, 50 μL of Steady-Lite Plus (PerkinElmer, Waltham, MA) were added to each well. The plate was shaken briefly, incubated four minutes and light output was measured on an EnSpire Alpha Multi-mode Plate Reader (PerkinElmer, Waltham, MA).

half-life [1] [h] | Half life, fold faster than Sar (vs SEQ ID NO: 52) ([1]; comparator SEQ ID NO: 52) [faster than Sar] | Compound | other results
67 | 1.9 | CC[C@H](C)[C@H](NC(=O)[C@H](CCC(=O)O)NC(=O)[C@H](CO)NC(=O)[C@@H](NC(=O)[C@H](CO)NC(=O)CN(C(=O)[C@@H](N)CCCCNC(=O)CC[C@H](NC(=O)CCCCCCCCCCCCCCCCC(=O)O)C(=O)O)C(C)C)C(C)C)C(=O)N[C@@H](CCC(N)=O)C(=O)N[C@@H](CC(C)C)C(=O)N[C@@H](CCSC)C(=O)N[C@@H](Cc1c[nH]cn1)C(=O)N[C@@H](CC(N)=O)C(=O)N[C@@H](CC(C)C)C(=O)NCC(=O)N[C@@H](CCCCN)C(=O)N[C@@H](Cc1c[nH]cn1)C(=O)N[C@@H](CC(C)C)C(=O)N[C@@H](CC(N)=O)C(=O)N[C@@H](CO)C(=O)N[C@@H](CCSC)C(=O)N[C@@H](CCC(=O)O)C(=O)N[C@@H](CCCNC(=N)N)C(=O)N[C@H](C(=O)N[C@@H](CCC(=O)O)C(=O)N[C@@H](Cc1c[nH]c2ccccc12)C(=O)N[C@@H](CC(C)C)C(=O)N[C@@H](CCCNC(=N)N)C(=O)N[C@@H](CCCCN)C(=O)N[C@@H](CCCCN)C(=O)N[C@@H](CC(C)C)C(=O)N[C@@H](CCC(N)=O)C(=O)N[C@@H](CC(=O)O)C(=O)N[C@H](C(=O)N[C@@H](Cc1c[nH]cn1)C(=O)N[C@@H](CC(N)=O)C(=O)N[C@@H](Cc1ccccc1)C(=O)O)C(C)C)C(C)C [SEQ ID NO: 48] | Half life, fold slower than dK (vs SEQ ID NO: 46) ([1]; comparator SEQ ID NO: 46): 1.4 slower than dK
130 | – | CC[C@H](C)[C@H](NC(=O)[C@H](CCC(=O)O)NC(=O)[C@H](CO)NC(=O)[C@@H](NC(=O)[C@H](CO)NC(=O)CN(C)C(=O)[C@@H](N)CCCCNC(=O)CC[C@H](NC(=O)CCCCCCCCCCCCCCCCC(=O)O)C(=O)O)C(C)C)C(=O)N[C@@H](CCC(N)=O)C(=O)N[C@@H](CC(C)C)C(=O)N[C@@H](CCSC)C(=O)N[C@@H](Cc1c[nH]cn1)C(=O)N[C@@H](CC(N)=O)C(=O)N[C@@H](CC(C)C)C(=O)NCC(=O)N[C@@H](CCCCN)C(=O)N[C@@H](Cc1c[nH]cn1)C(=O)N[C@@H](CC(C)C)C(=O)N[C@@H](CC(N)=O)C(=O)N[C@@H](CO)C(=O)N[C@@H](CCSC)C(=O)N[C@@H](CCC(=O)O)C(=O)N[C@@H](CCCNC(=N)N)C(=O)N[C@H](C(=O)N[C@@H](CCC(=O)O)C(=O)N[C@@H](Cc1c[nH]c2ccccc12)C(=O)N[C@@H](CC(C)C)C(=O)N[C@@H](CCCNC(=N)N)C(=O)N[C@@H](CCCCN)C(=O)N[C@@H](CCCCN)C(=O)N[C@@H](CC(C)C)C(=O)N[C@@H](CCC(N)=O)C(=O)N[C@@H](CC(=O)O)C(=O)N[C@H](C(=O)N[C@@H](Cc1c[nH]cn1)C(=O)N[C@@H](CC(N)=O)C(=O)N[C@@H](Cc1ccccc1)C(=O)O)C(C)C)C(C)C [SEQ ID NO: 52] | Half life, fold slower than dK (vs SEQ ID NO: 45) ([1]; comparator SEQ ID NO: 45): 1.4 slower than dK
71 | 1.8 | CC[C@H](C)[C@H](NC(=O)[C@H](CCC(=O)O)NC(=O)[C@H](CO)NC(=O)[C@@H](NC(=O)[C@H](CO)NC(=O)[C@H](C)N(C)C(=O)[C@@H](N)CCCCNC(=O)CC[C@H](NC(=O)CCCCCCCCCCCCCCCCC(=O)O)C(=O)O)C(C)C)C(=O)N[C@@H](CCC(N)=O)C(=O)N[C@@H](CC(C)C)C(=O)N[C@@H](CCSC)C(=O)N[C@@H](Cc1c[nH]cn1)C(=O)N[C@@H](CC(N)=O)C(=O)N[C@@H](CC(C)C)C(=O)NCC(=O)N[C@@H](CCCCN)C(=O)N[C@@H](Cc1c[nH]cn1)C(=O)N[C@@H](CC(C)C)C(=O)N[C@@H](CC(N)=O)C(=O)N[C@@H](CO)C(=O)N[C@@H](CCSC)C(=O)N[C@@H](CCC(=O)O)C(=O)N[C@@H](CCCNC(=N)N)C(=O)N[C@H](C(=O)N[C@@H](CCC(=O)O)C(=O)N[C@@H](Cc1c[nH]c2ccccc12)C(=O)N[C@@H](CC(C)C)C(=O)N[C@@H](CCCNC(=N)N)C(=O)N[C@@H](CCCCN)C(=O)N[C@@H](CCCCN)C(=O)N[C@@H](CC(C)C)C(=O)N[C@@H](CCC(N)=O)C(=O)N[C@@H](CC(=O)O)C(=O)N[C@H](C(=O)N[C@@H](Cc1c[nH]cn1)C(=O)N[C@@H](CC(N)=O)C(=O)N[C@@H](Cc1ccccc1)C(=O)O)C(C)C)C(C)C [SEQ ID NO: 53] | –
250 | – | CC[C@H](C)[C@H](NC(=O)[C@H](CCC(=O)O)NC(=O)[C@H](CO)NC(=O)[C@@H](NC(=O)[C@H](CO)NC(=O)[C@@H]1CCCCN1C(=O)[C@@H](N)CCCCNC(=O)CC[C@H](NC(=O)CCCCCCCCCCCCCCCCC(=O)O)C(=O)O)C(C)C)C(=O)N[C@@H](CCC(N)=O)C(=O)N[C@@H](CC(C)C)C(=O)N[C@@H](CCSC)C(=O)N[C@@H](Cc1c[nH]cn1)C(=O)N[C@@H](CC(N)=O)C(=O)N[C@@H](CC(C)C)C(=O)NCC(=O)N[C@@H](CCCCN)C(=O)N[C@@H](Cc1c[nH]cn1)C(=O)N[C@@H](CC(C)C)C(=O)N[C@@H](CC(N)=O)C(=O)N[C@@H](CO)C(=O)N[C@@H](CCSC)C(=O)N[C@@H](CCC(=O)O)C(=O)N[C@@H](CCCNC(=N)N)C(=O)N[C@H](C(=O)N[C@@H](CCC(=O)O)C(=O)N[C@@H](Cc1c[nH]c2ccccc12)C(=O)N[C@@H](CC(C)C)C(=O)N[C@@H](CCCNC(=N)N)C(=O)N[C@@H](CCCCN)C(=O)N[C@@H](CCCCN)C(=O)N[C@@H](CC(C)C)C(=O)N[C@@H](CCC(N)=O)C(=O)N[C@@H](CC(=O)O)C(=O)N[C@H](C(=O)N[C@@H](Cc1c[nH]cn1)C(=O)N[C@@H](CC(N)=O)C(=O)N[C@@H](Cc1ccccc1)C(=O)O)C(C)C)C(C)C [SEQ ID NO: 54] | Half life, fold slower than Sar (vs SEQ ID NO: 52) ([1]; comparator SEQ ID NO: 52): 1.9 slower than Sar
– | – | CC[C@H](C)[C@H](NC(=O)[C@H](CCC(=O)O)NC(=O)[C@H](CO)NC(=O)[C@@H](NC(=O)[C@@H](N)CO)C(C)C)C(=O)N[C@@H](CCC(N)=O)C(=O)N[C@@H](CC(C)C)C(=O)N[C@@H](CCSC)C(=O)N[C@@H](Cc1c[nH]cn1)C(=O)N[C@@H](CC(N)=O)C(=O)N[C@@H](CC(C)C)C(=O)NCC(=O)N[C@@H](CCCCN)C(=O)N[C@@H](Cc1c[nH]cn1)C(=O)N[C@@H](CC(C)C)C(=O)N[C@@H](CC(N)=O)C(=O)N[C@@H](CO)C(=O)N[C@@H](CCSC)C(=O)N[C@@H](CCC(=O)O)C(=O)N[C@@H](CCCNC(=N)N)C(=O)N[C@H](C(=O)N[C@@H](CCC(=O)O)C(=O)N[C@@H](Cc1c[nH]c2ccccc12)C(=O)N[C@@H](CC(C)C)C(=O)N[C@@H](CCCNC(=N)N)C(=O)N[C@@H](CCCCN)C(=O)N[C@@H](CCCCN)C(=O)N[C@@H](CC(C)C)C(=O)N[C@@H](CCC(N)=O)C(=O)N[C@@H](CC(=O)O)C(=O)N[C@H](C(=O)N[C@@H](Cc1c[nH]cn1)C(=O)N[C@@H](CC(N)=O)C(=O)N[C@@H](Cc1ccccc1)C(=O)N[C@@H](CCCCNC(=O)CC[C@H](NC(=O)CCCCCCCCCCCCCCCCC(=O)O)C(=O)O)C(N)=O)C(C)C)C(C)C [SEQ ID NO: 56] | potency at the PTH receptor ([2]; FIGS. 3A, 3B, luciferase reporter of cAMP production): retains high potency; EC50 ([2]; HEK293 cells, PTH1 receptor, cAMP-responsive luciferase, 5 hours, read-out: Potency EC50): 2.9 nM
49 | – | CC[C@H](C)[C@H](NC(=O)[C@H](CCC(=O)O)NC(=O)[C@H](CO)NC(=O)[C@@H](NC(=O)[C@H](CO)NC(=O)CN(C)C(=O)[C@H](N)CCCCN)C(C)C)C(=O)N[C@@H](CCC(N)=O)C(=O)N[C@@H](CC(C)C)C(=O)N[C@@H](CCSC)C(=O)N[C@@H](Cc1c[nH]cn1)C(=O)N[C@@H](CC(N)=O)C(=O)N[C@@H](CC(C)C)C(=O)NCC(=O)N[C@@H](CCCCN)C(=O)N[C@@H](Cc1c[nH]cn1)C(=O)N[C@@H](CC(C)C)C(=O)N[C@@H](CC(N)=O)C(=O)N[C@@H](CO)C(=O)N[C@@H](CCSC)C(=O)N[C@@H](CCC(=O)O)C(=O)N[C@@H](CCCNC(=N)N)C(=O)N[C@H](C(=O)N[C@@H](CCC(=O)O)C(=O)N[C@@H](Cc1c[nH]c2ccccc12)C(=O)N[C@@H](CC(C)C)C(=O)N[C@@H](CCCNC(=N)N)C(=O)N[C@@H](CCCCN)C(=O)N[C@@H](CCCCN)C(=O)N[C@@H](CC(C)C)C(=O)N[C@@H](CCC(N)=O)C(=O)N[C@@H](CC(=O)O)C(=O)N[C@H](C(=O)N[C@@H](Cc1c[nH]cn1)C(=O)N[C@@H](CC(N)=O)C(=O)N[C@@H](Cc1ccccc1)C(=O)N[C@@H](CCCCNC(=O)CC[C@H](NC(=O)CCCCCCCCCCCCCCCCC(=O)O)C(=O)O)C(N)=O)C(C)C)C(C)C [SEQ ID NO: 57] | Half life, fold faster (vs SEQ ID NO: 45) ([1]; comparator SEQ ID NO: 45): 1.8 faster without
